# Measurements as given in US10569270B2, “Screening kit and method” (CELLPLY S.R.L., priority 2016, dated 2020).
# pIC50: −log10 of the molar value.
# Assays:
# SU-DHL-4 cancer cells = experiment: open well assay of Rituximab on SU-DHL-4 lymphoma cells (Calcein AM / PI, time-lapse); format: cell-based; details: Rituximab 10 μg/mL, hS 1%, PI 5 μM; images up to 60 min; versus CTRL; FIG. 11A
# Procedure: Cells: SU-DHL-4 lymphoma cells and Raji cells were used (ATCC CCL-86). 3·10^5 cells/mL were cultured in RPMI medium supplemented with 10% FBS, 1% […]/streptomycin at 37° C., 95% RH, 5% CO2. The cells were amplified, dividing them when in confluence. PBMC were isolated from blood by centrifugation in gradient. Whole blood from healthy donors was collected into tubes treated with anticoagulants according to the directive “ethical principles and guidelines for the protection of humans in research”. Isolated PBMC were washed twice with 10 mL cold HBSS after lysis of red blood cells. The concentration of cells and their viability was determined with Trypan Blue on haemocytometer. The concentration was adjusted to 1 million cells/mL.
# Different batches of SU-DHL-4 or Raji cells were harvested at the peak of their growth, washed with PBS and counted in a hemocytometer with Trypan Blue. The cell concentration was adjusted to 1 million cells/mL and they were labeled with Calcein AM (CAM) 5 nM for flow cytometry and 250 nM for the assay according to the present invention. […] Cell viability was finally assessed by PI and flow cytometry. […]
# The images were acquired brightfield (BF) to evaluate the morphological characteristics and then in fluorescence to evaluate the signal in DAPI bands (ex: 360/40 nm, 460/50 nm), FITC (ex: 480/30 nm, em: 535/40 nm), TRITC (ex: 540/25 nm, em: 605/55 nm). […]
# Jurkat cells = experiment: calcium signal (Fluo-4) of Jurkat cells in open microwells after stimulation; format: cell-based, human; details: Fluo-4 labeled Jurkat cells
# Procedure: Cells from the Jurkat cell line (human Leukemic T cells) were obtained from ATCC and cultured in RPMI 1640 medium supplemented with 10% inactivated FBS medium, 10 mM Hepes, 2 mM Ultraglutamine and 1 mM sodium pyruvate, 1% Penicillin/Streptomycin in 25 cm^2 flasks at 37° C. and 5% CO2.
# For the assay in open microwells according to the present invention, Jurkat cells were labeled with Fluo-4 20 μM in HBSS, centrifuged and resuspended in serum-free medium (RPMI 1640 with 25 mM Hepes or HBSS) at a concentration of 1.6×10^6 cells/mL in 1.5 mL Eppendorf tubes used as input reservoirs for the open reversed microwell system. Subsequent to the deposition of Jurkat cells in the microwells (approximately 1-10 cells per microwell) and washing the channels with HBSS, the solutions containing Ionomycin (2 μg/mL) or OKT3 (10 μg/mL) are made to flow into specific microchannels of the open microwell system via peristaltic pump. The images were acquired by a camera connected to the microscope at a distance of 1 minute and processed by software developed in LabView, quantifying the dynamic performance of the same signal on each sample cell.
# [1] = test system: leukemic cell lines (KG-1, Kasumi-1 and HL-60); experiment: dose/response analysis of leukemic cell lines to idarubicin in the open reversed microwell system; format: cell-based; details: leukemic cell line (one of KG-1, Kasumi-1, HL-60), FIG. 9C
compound,measurement,setting,value
RTX: monoclonal antibody Rituximab,"dead cells (PI, TRITC channel) in time-lapse images",SU-DHL-4 cancer cells,present only at T2 and T3 in the RTX group
C[C@H](CCC(=O)O)C[C@H](C)C[C@H](C)C(=O)/C=C(\O)[C@H](C)C[C@H](C)C/C=C/[C@@H](C)[C@@H](O)[C@@H](C)[C@@H](O)C[C@@H]1CC[C@@](C)([C@H]2CC[C@@](C)([C@@H](C)O)O2)O1 [Ionomycin],average increase of the signal with respect to the baseline,"Jurkat cells; Ionomycin 2 μg/mL, series of 10 experiments",193%+/−139%
CC(=O)[C@]1(O)Cc2c(O)c3c(c(O)c2[C@@H](O[C@H]2C[C@H](N)[C@H](O)[C@H](C)O2)C1)C(=O)c1ccccc1C3=O [idarubicin],pIC50,[1]; response level: resistant,6.67
same,pIC50,[1]; response level: sensitive on the average,7.66
same,pIC50,[1]; response level: sensitive,8.31
OKT3: monoclonal antibody purified from OKT3 hybridoma culture supernatant,increase of the signal peak compared to the baseline value,"Jurkat cells; OKT3 10 μg/mL, average of a series of 3 experiments",178%+/−90%
